Molecules are shown by their SMILES.

Broadly, the IC50 is the concentration at which inhibition is half-maximal.

The target of the assay is rat brain cortical membranes (GABA receptor complex, [35S]-TBPS binding). Briefly: Steroid inhibition of [35S]-TBPS binding. The conditions noted are these: 3 nM [35S]-TBPS, in the presence of 5 mM GABA. The protocol: [^35S]-t-Butylbicyclophosphorothionate (TBPS) binding assays using rat brain cortical membranes in the presence of 5 mM GABA has been described (Gee et al, J Pharmacol. Exp. Ther. 1987, 241, 346-353; Hawkinson et al, Mol. Pharmacol. 1994, 46, 977-985; Lewin, A. H et al., Mol. Pharmacol. 1989, 35, 189-194).
Briefly, cortices are rapidly removed following decapitation of carbon dioxide-anesthetized Sprague-Dawley rats (200-250 g). The cortices are homogenized in 10 volumes of ice-cold 0.32 M sucrose using a glass/teflon homogenizer and centrifuged at 1500×g for 10 min at 4° C. The resultant supernatants are centrifuged at 10,000×g for 20 min at 4° C. to obtain the P2 pellets. The P2 pellets are resuspended in 200 mM NaCl/50 mM Na—K phosphate pH 7.4 buffer and centrifuged at 10,000×g for 10 min at 4° C. This washing procedure is repeated twice and the pellets are resuspended in 10 volumes of buffer. Aliquots ([…]) of the membrane suspensions are incubated with 3 nM [^35S]-TBPS and […] aliquots of test drug dissolved in dimethyl sulfoxide (DMSO) (final 0.5%) in the presence of 5 mM GABA. The incubation is brought to a final volume of 1.0 mL with buffer. Nonspecific binding is determined in the presence of […] and ranged from 15 to 25%. Following a 90 min incubation at room temp, the assays are terminated by filtration through glass fiber filters (Schleicher and Schuell No. 32) using a cell harvester (Brandel) and rinsed three times with ice-cold buffer. Filter bound radioactivity is measured by liquid scintillation spectrometry. Non-linear curve fitting of the overall data for each drug averaged for each concentration is done using Prism (GraphPad). […] The concentration of test compound producing 50% inhibition (IC50) of specific binding and the maximal extent of inhibition (Imax) are determined for the individual experiments with the same model used for the overall data and then the means±SEMs of the individual experiments are calculated.
Various compounds are or can be screened to determine their potential as modulators of [^35S]-TBPS binding in vitro. These assays are or can be performed in accordance with the above discussed procedures.
As for `CC(=O)[C@H]1[C@H](C)C[C@H]2[C@@H]3CC[C@H]4C[C@](C)(O)CC[C@@H]4[C@H]3CC[C@@]21C` (stereo in doubt) [Compound 91], the IC50 is 10 to 50 nM.

Consider `C[C@@H]1C[C@H]2C[C@](C)(O)CC[C@]2(C)[C@H]2CC[C@]3(C)[C@@H](C#N)CC[C@H]3[C@H]12` [Compound 1], for which the IC50 was ≥ 500 nM.

`C[C@H]1C[C@H]2C[C@](C)(O)CC[C@]2(C)[C@H]2CC[C@]3(C)[C@@H](C#N)CC[C@H]3[C@H]12` [Compound 2]: the IC50 is ≥ 500 nM.

As for `CO[C@H]1CC[C@H]2[C@@H]3[C@H](C)C[C@H]4C[C@](C)(O)CC[C@]4(C)[C@H]3CC[C@]12C` [Compound 3], the IC50 is ≥ 500 nM.

Take `CO[C@H]1CC[C@H]2[C@@H]3[C@@H](C)C[C@H]4C[C@](C)(O)CC[C@]4(C)[C@H]3CC[C@]12C` [Compound 4]: the IC50 was ≥ 500 nM.

Regarding `CC(=O)[C@H]1CC[C@H]2[C@@H]3[C@H](C)C[C@H]4C[C@](C)(O)CC[C@]4(C)[C@H]3CC[C@]12C` [Compound 5], the IC50 is ≥ 500 nM.

Regarding `CC(=O)[C@H]1CC[C@H]2[C@@H]3[C@@H](C)C[C@H]4C[C@](C)(O)CC[C@]4(C)[C@H]3CC[C@]12C` [Compound 6], the IC50 was ≥ 500 nM.

For `C[C@H]1C[C@H]2C[C@](C)(O)CC[C@]2(C)[C@H]2CC[C@]3(C)[C@@H](C(=O)Cn4cc5ccncc5n4)CC[C@H]3[C@H]12` [Compound 7], the IC50 was ≥ 500 nM.

Consider `C[C@@H]1C[C@H]2C[C@](C)(O)CC[C@]2(C)[C@H]2CC[C@]3(C)[C@@H](C(=O)Cn4cc5ccncc5n4)CC[C@H]3[C@H]12` [Compound 8], for which the IC50 is ≥ 500 nM.

`C[C@H]1C[C@H]2C[C@](C)(O)CC[C@]2(C)[C@H]2CC[C@]3(C)[C@@H](C(=O)Cn4ncc5ccncc54)CC[C@H]3[C@H]12` [Compound 9]: the IC50 lay in the range of 100 to 500 nM.

In the case of `C[C@@H]1C[C@H]2C[C@](C)(O)CC[C@]2(C)[C@H]2CC[C@]3(C)[C@@H](C(=O)Cn4ncc5ccncc54)CC[C@H]3[C@H]12` [Compound 10], the IC50 is ≥ 500 nM.

For the molecule `COC[C@H]1C[C@H]2C[C@](C)(O)CC[C@]2(C)[C@H]2CC[C@]3(C)[C@@H](C(C)=O)CC[C@H]3[C@H]12` [Compound 11], the IC50 is ≥ 500 nM.

With `COC[C@@H]1C[C@H]2C[C@](C)(O)CC[C@]2(C)[C@H]2CC[C@]3(C)[C@@H](C(C)=O)CC[C@H]3[C@H]12` [Compound 12], the IC50 is ≥ 500 nM.

For the molecule `COC[C@H]1C[C@H]2C[C@](C)(O)CC[C@]2(C)[C@H]2CC[C@]3(C)[C@@H](C(=O)Cn4cc(C#N)cn4)CC[C@H]3[C@H]12` [Compound 13], the IC50 is ≥ 500 nM.

For the molecule `COC[C@@H]1C[C@H]2C[C@](C)(O)CC[C@]2(C)[C@H]2CC[C@]3(C)[C@@H](C(=O)Cn4cc(C#N)cn4)CC[C@H]3[C@H]12` [Compound 14], the IC50 is ≥ 500 nM.

As for `COC[C@H]1C[C@H]2C[C@](C)(O)CC[C@]2(C)[C@H]2CC[C@]3(C)[C@@H](C(=O)Cn4nc5ccc(OC)cc5n4)CC[C@H]3[C@H]12` [Compound 15], the IC50 is ≥ 500 nM.

For `COC[C@H]1C[C@H]2C[C@](C)(O)CC[C@]2(C)[C@H]2CC[C@]3(C)[C@@H](C(=O)Cn4nnc5ccc(OC)cc54)CC[C@H]3[C@H]12` [Compound 16], the IC50 was ≥ 500 nM.

For the molecule `COC[C@H]1C[C@H]2C[C@](C)(O)CC[C@]2(C)[C@H]2CC[C@]3(C)[C@@H](C(=O)Cn4nnc5cc(OC)ccc54)CC[C@H]3[C@H]12` [Compound 17], the IC50 was ≥ 500 nM.

On to `COC[C@@H]1C[C@H]2C[C@](C)(O)CC[C@]2(C)[C@H]2CC[C@]3(C)[C@@H](C(=O)Cn4nc5ccc(OC)cc5n4)CC[C@H]3[C@H]12` [Compound 18], for which the half-maximal inhibitory concentration (IC50) is ≥ 500 nM.

For `COC[C@@H]1C[C@H]2C[C@](C)(O)CC[C@]2(C)[C@H]2CC[C@]3(C)[C@@H](C(=O)Cn4nnc5ccc(OC)cc54)CC[C@H]3[C@H]12` [Compound 19], the IC50 was ≥ 500 nM.

Turning to `COC[C@@H]1C[C@H]2C[C@](C)(O)CC[C@]2(C)[C@H]2CC[C@]3(C)[C@@H](C(=O)Cn4nnc5cc(OC)ccc54)CC[C@H]3[C@H]12` [Compound 20], the IC50 is ≥ 500 nM.

As for `COC[C@H]1C[C@H]2C[C@](C)(O)CC[C@]2(C)[C@H]2CC[C@]3(C)[C@@H](C(=O)Cn4cc5ccncc5n4)CC[C@H]3[C@H]12` [Compound 21], the IC50 was ≥ 500 nM.

With `COC[C@@H]1C[C@H]2C[C@](C)(O)CC[C@]2(C)[C@H]2CC[C@]3(C)[C@@H](C(=O)Cn4ncc5ccncc54)CC[C@H]3[C@H]12` [Compound 23], the IC50 was ≥ 500 nM.

For `COC[C@@H]1C[C@H]2C[C@](C)(O)CC[C@]2(C)[C@H]2CC[C@]3(C)[C@@H](C(=O)Cn4cc5ccncc5n4)CC[C@H]3[C@H]12` [Compound 24], the IC50 is ≥ 500 nM.

As for `CC(=O)[C@H]1CC[C@H]2[C@@H]3[C@H](O)C[C@H]4C[C@](C)(O)CC[C@]4(C)[C@H]3CC[C@]12C` [Compound 25], the IC50 was ≥ 500 nM.

`C[C@@]1(O)CC[C@@]2(C)[C@@H](C[C@@H](O)[C@@H]3[C@@H]2CC[C@]2(C)[C@@H](C(=O)Cn4cc(C#N)cn4)CC[C@@H]32)C1` [Compound 26]: the IC50 was ≥ 500 nM.

Regarding `C[C@@]1(O)CC[C@@]2(C)[C@@H](C[C@@H](O)[C@@H]3[C@@H]2CC[C@]2(C)[C@@H](C(=O)Cn4cc5ccncc5n4)CC[C@@H]32)C1` [Compound 27], the half-inhibitory concentration (IC50) was ≥ 500 nM.

Turning to `C[C@@]1(O)CC[C@@]2(C)[C@@H](C[C@@H](O)[C@@H]3[C@@H]2CC[C@]2(C)[C@@H](C(=O)Cn4ncc5ccncc54)CC[C@@H]32)C1` [Compound 28], the IC50 is ≥ 500 nM.

As to `CO[C@@H]1C[C@H]2C[C@](C)(O)CC[C@]2(C)[C@H]2CC[C@]3(C)[C@@H](C(C)=O)CC[C@H]3[C@H]12` [Compound 29], the IC50 is ≥ 500 nM.

In the case of `CO[C@H]1C[C@H]2C[C@](C)(O)CC[C@]2(C)[C@H]2CC[C@]3(C)[C@@H](C(C)=O)CC[C@H]3[C@H]12` [Compound 30], the IC50 is ≥ 500 nM.

As for `CO[C@H]1C[C@H]2C[C@](C)(O)CC[C@]2(C)[C@H]2CC[C@]3(C)[C@@H](C(=O)Cn4cc(C#N)cn4)CC[C@H]3[C@H]12` [Compound 31], the IC50 is ≥ 500 nM.

As to `Cc1nnn(CC(=O)[C@H]2CC[C@H]3[C@@H]4[C@H](C)C[C@H]5C[C@](C)(O)CC[C@]5(C)[C@H]4CC[C@]23C)n1` [Compound 34], the IC50 is ≥ 500 nM.

Take `Cc1nnnn1CC(=O)[C@H]1CC[C@H]2[C@@H]3[C@H](C)C[C@H]4C[C@](C)(O)CC[C@]4(C)[C@H]3CC[C@]12C` [Compound 36]: the IC50 was ≥ 500 nM.

As for `C[C@@H]1C[C@H]2C[C@](C)(O)CC[C@]2(C)[C@H]2CC[C@]3(C)[C@@H](C(=O)Cn4cc(C#N)cn4)CC[C@H]3[C@H]12` [Compound 38], the IC50 was 100 to 500 nM.

On to `C[C@H]1C[C@H]2C[C@](C)(O)CC[C@]2(C)[C@H]2CC[C@]3(C)[C@@H](C(=O)Cn4cc(C#N)cn4)CC[C@H]3[C@H]12` [Compound 39], for which the IC50 was 100 to 500 nM.

Regarding `C[C@@]1(O)CC[C@@]2(C)[C@@H](CC[C@@H]3[C@@H]2C[C@@H](O)[C@]2(C)[C@@H](C#N)CC[C@@H]32)C1` [Compound 40], the half-maximal inhibitory concentration (IC50) is ≥ 500 nM.

Regarding `CO[C@@H]1C[C@H]2[C@@H](CC[C@H]3C[C@](C)(O)CC[C@@]32C)[C@@H]2CC[C@H](C#N)[C@@]12C` [Compound 41], the IC50 was in the range of 100 to 500 nM.

Consider `CO[C@H]1CC[C@H]2[C@@H]3CC[C@H]4C[C@](C)(O)CC[C@]4(C)[C@H]3C[C@@H](OC)[C@]12C` [Compound 42], for which the IC50 was 100 to 500 nM.

For `CO[C@@H]1C[C@H]2[C@@H](CC[C@H]3C[C@](C)(O)CC[C@@]32C)[C@@H]2CC[C@H](C(C)=O)[C@@]12C` [Compound 43], the concentration for half-maximal inhibition (IC50) lay in the range of 100 to 500 nM.

For the origin of these results see patent US20250092084A1, “C7, C12, AND C16 SUBSTITUTED NEUROACTIVE STEROIDS AND THEIR METHODS OF USE” (Sage Therapeutics, Inc., priority 2016, published 2025).
